From ChEMBL document CHEMBL1671830, “Discovery of PSI-353661, a Novel Purine Nucleotide Prodrug for the Treatment of HCV Infection” (ACS Med Chem Lett, 2011)

What was measured:
Assay type in all cases: ADME, organism-based
Conditions in all cases: in vivo
Plasma [1] = assay: Metabolic stability in rat plasma assessed as (2S)-2-((((2R,3R,4R,5R)-5-(2-amino-6-methoxy-9H-purin-9-yl)-4-fluoro-3-hydroxy-4-methyltetrahydrofuran-2-yl)methoxy)(hydroxy)phosphorylamino)propanoic acid level at 60 uCi, po after 6 hrs
Liver [2] = assay: Metabolic stability in rat liver assessed as ((2R,3R,4R,5R)-5-(2-amino-6-oxo-1H-purin-9(6H)-yl)-4-fluoro-3-hydroxy-4-methyltetrahydrofuran-2-yl)methyl dihydrogen phosphate level at 60 uCi, po after 1 hr
Plasma [3] = assay: Metabolic stability in rat plasma assessed as (2S)-2-((((2R,3R,4R,5R)-5-(2-amino-6-methoxy-9H-purin-9-yl)-4-fluoro-3-hydroxy-4-methyltetrahydrofuran-2-yl)methoxy)(hydroxy)phosphorylamino)propanoic acid level at 60 uCi, po after 1 hr
Liver [4] = assay: Metabolic stability in rat liver assessed as ((2R,3R,4R,5R)-5-(2-amino-6-oxo-1H-purin-9(6H)-yl)-4-fluoro-3-hydroxy-4-methyltetrahydrofuran-2-yl)methyl tetrahydrogen triphosphate level at 60 uCi, po after 1 hr
Liver [5] = assay: Metabolic stability in rat liver assessed as ((2R,3R,4R,5R)-5-(2-amino-6-oxo-1H-purin-9(6H)-yl)-4-fluoro-3-hydroxy-4-methyltetrahydrofuran-2-yl)methyl tetrahydrogen triphosphate level at 60 uCi, po after 6 hrs
Plasma [6] = assay: Metabolic stability in rat plasma assessed as beta-D-2'-Deoxy-2'-R-fluoro-2'-beta-C-methylguanosine level at 60 uCi, po after 1 hr
Liver [7] = assay: Metabolic stability in rat liver assessed as ((2R,3R,4R,5R)-5-(2-amino-6-oxo-1H-purin-9(6H)-yl)-4-fluoro-3-hydroxy-4-methyltetrahydrofuran-2-yl)methyl trihydrogen diphosphate level at 60 uCi, po after 1 hr
Liver [8] = assay: Metabolic stability in rat liver assessed as ((2R,3R,4R,5R)-5-(2-amino-6-oxo-1H-purin-9(6H)-yl)-4-fluoro-3-hydroxy-4-methyltetrahydrofuran-2-yl)methyl trihydrogen diphosphate level at 60 uCi, po after 6 hrs
Liver [9] = assay: Metabolic stability in rat liver assessed as beta-D-2'-Deoxy-2'-R-fluoro-2'-beta-C-methylguanosine level at 60 uCi, po after 1 hr
Plasma [10] = assay: Metabolic stability in rat plasma assessed as PSI-353661 level at 60 uCi, po after 1 hr
Liver [11] = assay: Metabolic stability in rat liver assessed as (2S)-2-((((2R,3R,4R,5R)-5-(2-amino-6-methoxy-9H-purin-9-yl)-4-fluoro-3-hydroxy-4-methyltetrahydrofuran-2-yl)methoxy)(hydroxy)phosphorylamino)propanoic acid level at 60 uCi, po after 6 hrs
Liver [12] = assay: Metabolic stability in rat liver assessed as ((2R,3R,4R,5R)-5-(2-amino-6-oxo-1H-purin-9(6H)-yl)-4-fluoro-3-hydroxy-4-methyltetrahydrofuran-2-yl)methyl dihydrogen phosphate level at 60 uCi, po after 6 hrs
Plasma [13] = assay: Metabolic stability in rat plasma assessed as PSI-353661 level at 60 uCi, po after 6 hrs
Plasma [14] = assay: Metabolic stability in rat plasma assessed as beta-D-2'-Deoxy-2'-R-fluoro-2'-beta-C-methylguanosine level at 60 uCi, po after 6 hrs
Liver [15] = assay: Metabolic stability in rat liver assessed as beta-D-2'-Deoxy-2'-R-fluoro-2'-beta-C-methylguanosine level at 60 uCi, po after 6 hrs
Plasma [16] = assay: Metabolic stability in rat plasma assessed as (2S)-isopropyl 2-((((2R,3R,4R,5R)-5-(2-amino-6-methoxy-9H-purin-9-yl)-4-fluoro-3-hydroxy-4-methyltetrahydrofuran-2-yl)methoxy)(phenoxy)phosphorylamino)propanoate level at 60 uCi, po after 6 hrs
Liver [17] = assay: Metabolic stability in rat liver assessed as (2S)-2-((((2R,3R,4R,5R)-5-(2-amino-6-methoxy-9H-purin-9-yl)-4-fluoro-3-hydroxy-4-methyltetrahydrofuran-2-yl)methoxy)(hydroxy)phosphorylamino)propanoic acid level at 60 uCi, po after 1 hr
Plasma [18] = assay: Metabolic stability in rat plasma assessed as (2S)-isopropyl 2-((((2R,3R,4R,5R)-5-(2-amino-6-methoxy-9H-purin-9-yl)-4-fluoro-3-hydroxy-4-methyltetrahydrofuran-2-yl)methoxy)(phenoxy)phosphorylamino)propanoate level at 60 uCi, po after 1 hr

Stability (Plasma [1]): 288 cpm
Stability (Liver [2]): 1828 cpm
Stability (Plasma [3]): 920 cpm
Stability (Liver [4]): 384 cpm
Stability (Liver [5]): 460 cpm
Stability (Plasma [6]): 1376 cpm
Stability (Liver [7]): 988 cpm
Stability (Liver [8]): 1620 cpm
Stability (Liver [9]): 4224 cpm
Stability (Plasma [10]): 1112 cpm
Stability (Liver [11]): 572 cpm
Stability (Liver [12]): 1920 cpm
Stability (Plasma [13]): 368 cpm
Stability (Plasma [14]): 3848 cpm
Stability (Liver [15]): 11512 cpm
Stability (Plasma [16]): 272 cpm
Stability (Liver [17]): 1648 cpm
Stability (Plasma [18]): 1160 cpm
Structure (SMILES): [3H]c1nc2c(OC)nc(N)nc2n1[C@@H]1O[C@H](COP(=O)(O)N[C@@H](C)C(=O)OC(C)C)[C@@H](O)[C@@]1(C)F
